Measurements as given in patent US20090258878A1, “TRIAZINE DERIVATIVE COMPOUND AND COMPOSITION FOR TREATING CANCER […]” (priority 2006, published 2009).
Like-named read-outs stand apart in the source and are kept apart here.

Experiments:
MCF-7 tumor cells = conditions: for Height of breast cancer mass / Major Axis of breast cancer mass / Minor Axis of breast cancer mass: nude mouse; for in vivo anticancer effect regarding breast cancer formed in nude mouse: two administrations of 500 μM, vs negative control mass size
Method: Weekly administration of experiment compound was initiated 2 days after measurement of tumor size. The concentration of the first administration was 500 μM, respectively.

[1] = tested on: breast cancers naturally formed in female mouse transformed to form cancer (HCCR-1); conditions: for anticancer effect against breast cancer formed in transformed mouse in vivo / breast cancer after one administration: 100 μM; for anti-cancer effect on transformed animal model, rank order (FIG. 11) / formation of cancer again at second injection: 100 μM weekly; for breast cancer after one administration: transformed mouse with naturally formed breast cancer; for formation of cancer again at second injection: transformed mouse
Method: Anticancer effect of Dan-BC1, Dan-BC2 and Dan-BC3 according to the present invention was assessed using the mouse transformed with human proto-oncogene causing cancer which was over-expressed in mammal.
Since the cell line used for the transformed mouse has capacity for forming tumor, it forms a carcinoma such as palpable tumor when transplanted into mammal. Cell line used in the present experiment produces a large quantity of HCCR-1 protein by overexpressing human proto-oncogene (hereafter, HCCR-1), which protein interacts with D52 protein (GenBank Reg. No. NM003288) as reported as being related to cancer (Byrne, J. A. et al., Cancer Res., 55, 2896-2903 (1995); and Bryne, J. A. et al., Oncogene, 16, 873-881 (1998) reference), activates protein Kinases C and Telomerase, incapacitates the function of controlling cell cycle checkpoint, and transforms into malignant tumor though the course of lowering the expression of egr-1 gene.

[2] = tested on: MCF-7 breast cancer cell line; conditions: for growth inhibition effect on cell (FIG. 1): 2 days
Method: 2×10^5 MCF-7 cells were respectively distributed into each 6 well plates and grown. Thereafter, Dan-BC1, Dan-BC2 and Dan-BC3 compounds were diluted to be dose concentration of 10, 50 and 100 μM, and after treating them into cancers for 2 days according to the concentration, they were compared by measuring the cell viability with those of drug-untreated group.

[3] = 1 week after First Administration, 500 μM
[4] = 1 day before First Administration
[5] = the day of First Administration, 500 μM

C=CCNc1nc(NCCCC)nc(NCc2ccc(C(=O)NCCOCCOCCNC(=O)c3ccccc3)cc2)n1 [Dan-BC1]
extinction effect on breast cancer cell in nude mouse, rank order (FIG. 7) (MCF-7 tumor cells; 500 μM): high in case of Dan-BC1, Dan-BC3 compound, and Dan-BC2 compound in that order | Height of breast cancer mass (MCF-7 tumor cells; [3]): 2 mm | Major Axis of breast cancer mass (MCF-7 tumor cells; [3]): 10 mm | Minor Axis of breast cancer mass (MCF-7 tumor cells; [3]): 8 mm | Height of breast cancer mass (MCF-7 tumor cells; [4]): 2 mm | Major Axis of breast cancer mass (MCF-7 tumor cells; [4]): 4 mm | Minor Axis of breast cancer mass (MCF-7 tumor cells; [4]): 2 mm | Height of breast cancer mass (MCF-7 tumor cells; [5]): 5 mm | Major Axis of breast cancer mass (MCF-7 tumor cells; [5]): 12 mm | Minor Axis of breast cancer mass (MCF-7 tumor cells; [5]): 10 mm | in vivo anticancer effect regarding breast cancer formed in nude mouse (MCF-7 tumor cells): strong in vivo anticancer effect | anticancer effect against breast cancer formed in transformed mouse in vivo [1]: strong anticancer effect | anti-cancer effect on transformed animal model, rank order (FIG. 11) [1]: the most superior | breast cancer after one administration [1]: extinction of breast cancer was resulted even with administration of only once | growth inhibition effect on cell (FIG. 1) ([2]; 10 μM): weak growth inhibition effect on cell | growth inhibition effect on cell (FIG. 1) ([2]; 50 μM): no significant growth inhibition effect on cell | cells survived compared with cells without administration ([2]; 100 μM, 12 hours): about 68% | cells survived compared with cells without administration ([2]; 100 μM, 24 hours): about 37% | cells survived compared with cells without administration ([2]; 100 μM, 36 hours): about 27% | growth inhibition effect on cell (FIG. 1) ([2]; 100 μM): an extinct effect on cell was apparent to the naked eye | cells survived compared with cells without administration ([2]; 100 μM, 48 hours): all cells reached extinction

CCCCNc1nc(NCc2ccncc2)nc(NCc2ccc(C(=O)NCCOCCOCCNC(=O)c3ccccc3)cc2)n1 [Dan-BC2]
extinction effect on breast cancer cell in nude mouse, rank order (FIG. 7) (MCF-7 tumor cells; 500 μM): high in case of Dan-BC1, Dan-BC3 compound, and Dan-BC2 compound in that order | Height of breast cancer mass (MCF-7 tumor cells; [3]): 3 mm | Major Axis of breast cancer mass (MCF-7 tumor cells; [3]): 15 mm | Minor Axis of breast cancer mass (MCF-7 tumor cells; [3]): 10 mm | Height of breast cancer mass (MCF-7 tumor cells; [4]): 2 mm | Major Axis of breast cancer mass (MCF-7 tumor cells; [4]): 4 mm | Minor Axis of breast cancer mass (MCF-7 tumor cells; [4]): 2 mm | Height of breast cancer mass (MCF-7 tumor cells; [5]): 5 mm | Major Axis of breast cancer mass (MCF-7 tumor cells; [5]): 12 mm | Minor Axis of breast cancer mass (MCF-7 tumor cells; [5]): 10 mm | in vivo anticancer effect regarding breast cancer formed in nude mouse (MCF-7 tumor cells): strong in vivo anticancer effect | anticancer effect against breast cancer formed in transformed mouse in vivo [1]: showed anticancer effect | anti-cancer effect on transformed animal model, rank order (FIG. 11) [1]: as an order of the next Dan-BC3, and Dan-BC2 | formation of cancer again at second injection [1]: formation of cancer was induced again at the time of the 2nd injection | breast cancer after one administration [1]: breast cancer became extinct | growth inhibition effect on cell (FIG. 1) ([2]; 10 μM): weak growth inhibition effect on cell | growth inhibition effect on cell (FIG. 1) ([2]; 50 μM): no significant growth inhibition effect on cell | cells survived compared with cells without administration ([2]; 100 μM, 12 hours): about 75% | cells survived compared with cells without administration ([2]; 100 μM, 24 hours): about 49% | cells survived compared with cells without administration ([2]; 100 μM, 36 hours): about 33% | growth inhibition effect on cell (FIG. 1) ([2]; 100 μM): an extinct effect on cell was apparent to the naked eye | cells survived compared with cells without administration ([2]; 100 μM, 48 hours): 20%

CCCCNc1nc(NCc2ccc(C(=O)NCCOCCOCCNC(=O)c3ccccc3)cc2)nc(NC(CC)CC)n1 [Dan-BC3]
extinction effect on breast cancer cell in nude mouse, rank order (FIG. 7) (MCF-7 tumor cells; 500 μM): high in case of Dan-BC1, Dan-BC3 compound, and Dan-BC2 compound in that order | Height of breast cancer mass (MCF-7 tumor cells; [3]): 2 mm | Major Axis of breast cancer mass (MCF-7 tumor cells; [3]): 15 mm | Minor Axis of breast cancer mass (MCF-7 tumor cells; [3]): 10 mm | Height of breast cancer mass (MCF-7 tumor cells; [4]): 2 mm | Major Axis of breast cancer mass (MCF-7 tumor cells; [4]): 4 mm | Minor Axis of breast cancer mass (MCF-7 tumor cells; [4]): 2 mm | Height of breast cancer mass (MCF-7 tumor cells; [5]): 5 mm | Major Axis of breast cancer mass (MCF-7 tumor cells; [5]): 12 mm | Minor Axis of breast cancer mass (MCF-7 tumor cells; [5]): 7 mm | in vivo anticancer effect regarding breast cancer formed in nude mouse (MCF-7 tumor cells): strong in vivo anticancer effect | anticancer effect against breast cancer formed in transformed mouse in vivo [1]: showed anticancer effect | anti-cancer effect on transformed animal model, rank order (FIG. 11) [1]: as an order of the next Dan-BC3, and Dan-BC2 | formation of cancer again at second injection [1]: formation of cancer was derived again at the time of the second injection | breast cancer after one administration [1]: breast cancer became extinct | growth inhibition effect on cell (FIG. 1) ([2]; 10 μM): weak growth inhibition effect on cell | growth inhibition effect on cell (FIG. 1) ([2]; 50 μM): no significant growth inhibition effect on cell | cells survived compared with cells without administration ([2]; 100 μM, 12 hours): about 60% | cells survived compared with cells without administration ([2]; 100 μM, 24 hours): about 37% | cells survived compared with cells without administration ([2]; 100 μM, 36 hours): about 7% | growth inhibition effect on cell (FIG. 1) ([2]; 100 μM): an extinct effect on cell was apparent to the naked eye | cells survived compared with cells without administration ([2]; 100 μM, 48 hours): all cells reached extinct
